According to patent US20170105969A1, “CENICRIVIROC FOR THE TREATMENT OF HIV-2 INFECTION” (Tobira Therapeutics, Inc., priority 2014, published 2017):

Key:
HIV = experiment: Ex vivo intracellular HIV DNA (qPCR) in PBMCs of Study 202 subjects; conditions: Week 24
Experimental: Early (strong-stop) and late (full-length) reverse transcript levels were measured by qPCR. […] P24 and viral load levels were measured by ELISA and qRT-PCR after 4 hours.

CCR3 = biological target: T1, CCR3 (Homo sapiens, UniProt P51677); experiment: Ligand binding to CCR3
T1 sequence (P51677 1-355): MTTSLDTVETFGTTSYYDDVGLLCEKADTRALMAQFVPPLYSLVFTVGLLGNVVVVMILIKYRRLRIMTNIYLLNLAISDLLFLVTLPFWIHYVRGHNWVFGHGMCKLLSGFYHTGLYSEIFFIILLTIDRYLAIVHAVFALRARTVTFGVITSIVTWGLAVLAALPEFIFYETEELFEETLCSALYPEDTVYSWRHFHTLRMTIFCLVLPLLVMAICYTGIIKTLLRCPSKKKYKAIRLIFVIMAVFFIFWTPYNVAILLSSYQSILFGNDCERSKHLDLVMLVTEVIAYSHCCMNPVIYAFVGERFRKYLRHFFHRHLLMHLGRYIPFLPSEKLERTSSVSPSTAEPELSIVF

HIV-2 clinical isolates = experiment: HIV-2 phenotypic susceptibility, ANRS PBMC method; format: cell-based; conditions: for EC50: Human immunodeficiency virus 2, PBMC
Experimental: All patients were infected with HIV-2 group A. Tropism was determined phenotypically using Ghost(3) cell lines expressing CD4 receptor and one HIV coreceptor, CCR5 or CXCR4. Both Ghost(3) cell lines carries a humanized green fluorescent protein (GFP) gene, under the control of a HIV-2 LTR. […] Ghost(3) cells were provided by the NIH AIDS Reagent program.
Briefly, cell-free HIV-2 positive supernatant was serially diluted (1, 10^−1, and 10^−2) and incubated with PBMC for viral titration. Viruses were tested at a 100 TCID50 titration. Cells were pre-incubated with cenicriviroc or maraviroc at an appropriate concentration 1 hour before viral infection. Six serial dilutions of the antiretroviral drug were tested in quadruplicate. On day 4, viral replication was assessed by a specific viral load assay (Generic HIV-2 viral load, Biocentric, France).

[1] = APRI and FIB-4 fibrosis scores, post-hoc analysis of Study 202; format: in vivo, human
Experimental: Change in score category from baseline (BL) to Weeks 24 and 48 was assessed in patients with non-missing data. Correlations between changes from BL in APRI and FIB-4 scores, and MCP-1 (CCR2 ligand) and sCD14 (inflammatory biomarker) levels were evaluated.

[2] = Study 201: safety and tolerability (adverse events); format: in vivo, human
Experimental: Subjects were antiretroviral treatment experienced, CCR5 antagonist-naïve, with HIV-1 RNA levels of at least 5000 copies/mL and CD4+ cell counts of at least 250 cells/mm^3. Subjects with HIV-2, hepatitis B virus, or hepatitis C virus co-infection or dual/mixed-tropic HIV-1 were ineligible. Other than their HIV-1 infection, subjects were generally healthy.
In this study, all dose groups received the original formulation (DP3_25), except the 100 mg dose group which received an alternative formulation (DP4_100). […] These subjects were excluded from the efficacy, PK, and PK/PD data, but included in the baseline and safety data. In this study, safety and tolerability were assessed by monitoring AEs, vital signs, ECGs, clinical laboratory values from blood and urine, and physical examinations. Data from all subjects on placebo were pooled for the analyses.

[3] = test system: RANTES-induced Ca2+ mobilization; experiment: RANTES-induced Ca2+ mobilization; format: cell-based
CCR4 = biological target: T2, CCR4 (Homo sapiens, UniProt P51679); experiment: Ligand binding to CCR4
T2 sequence (P51679 1-360): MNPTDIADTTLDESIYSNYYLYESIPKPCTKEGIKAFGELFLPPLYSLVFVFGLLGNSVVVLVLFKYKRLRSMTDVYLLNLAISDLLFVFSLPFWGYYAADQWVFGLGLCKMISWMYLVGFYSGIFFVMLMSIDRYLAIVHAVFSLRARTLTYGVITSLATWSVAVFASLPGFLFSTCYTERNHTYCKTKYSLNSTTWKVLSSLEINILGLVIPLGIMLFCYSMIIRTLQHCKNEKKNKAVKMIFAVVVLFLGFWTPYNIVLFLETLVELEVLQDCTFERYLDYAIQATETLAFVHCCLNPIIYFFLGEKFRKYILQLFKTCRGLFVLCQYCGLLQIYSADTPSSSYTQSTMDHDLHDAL

CCR5 = CCR5 (Homo sapiens, UniProt P51681); experiment: CCR5 receptor occupancy / internalization in PBMCs by flow cytometry; format: cell-based
Sequence of CCR5 (P51681 whole entry): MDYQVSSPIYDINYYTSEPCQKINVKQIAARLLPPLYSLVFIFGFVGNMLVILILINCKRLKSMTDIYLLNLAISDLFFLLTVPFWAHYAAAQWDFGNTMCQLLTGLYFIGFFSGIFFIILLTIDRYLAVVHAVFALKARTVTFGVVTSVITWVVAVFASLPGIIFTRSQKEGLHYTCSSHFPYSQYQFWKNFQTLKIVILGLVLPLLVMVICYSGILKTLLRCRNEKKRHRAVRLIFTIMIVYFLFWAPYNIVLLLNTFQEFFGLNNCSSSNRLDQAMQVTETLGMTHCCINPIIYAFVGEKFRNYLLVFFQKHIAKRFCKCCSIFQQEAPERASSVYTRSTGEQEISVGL
Experimental: The capacity of each drug to inhibit CCR5 or CCR2 internalization was evaluated. Cell-surface expression of CCR5 and CCR2 was assessed by flow cytometry, and fluorescence values were converted into molecules of equivalent soluble fluorescence (MESF).

[4] = HIV-2 isolate 10-046, group A, R5
[5] = HIV-2 isolate 10-051, group A, R5
[6] = HIV-2 isolate 10-055, group A, X4
[7] = HIV-2 isolate 10-056, group A, R5
[8] = HIV-2 isolate 10-069, group A, Dual
[9] = HIV-2 isolate 10-074, group A, R5
[10] = among subjects on CVC presenting with a AE (n=30)

CCCCOCCOc1ccc(-c2ccc3c(c2)/C=C(/C(=O)Nc2ccc([S@@+]([O-])Cc4cncn4CCC)cc2)CCCN3CC(C)C)cc1 [CVC, (S)-8-[4-(2-Butoxyethoxy)phenyl]-1-isobutyl-N-(4-{[(1-propyl-1H-imidazol-5-yl)methyl]sulfinyl}phenyl)-1,2,3,4-tetrahydro-1-benzazocine-5-carboxamide]
Strong-stop HIV DNA decline (marker of HIV entry) (HIV; CVC 100 mg arm): 51%
Strong-stop HIV DNA decline (marker of HIV entry) (HIV; CVC 200 mg arm): 37%
inhibition of ligand binding (in words) (CCR3): weakly inhibited
MPI (%) (HIV-2 clinical isolates; [4]): 94%
MPI (%) (HIV-2 clinical isolates; [5]): 93%
MPI (%) (HIV-2 clinical isolates; [6]): 4%
MPI (%) (HIV-2 clinical isolates; [7]): 94%
MPI (%) (HIV-2 clinical isolates; [8]): 33%
MPI (%) (HIV-2 clinical isolates; [9]): 98%
EC50 (HIV-2 clinical isolates; [4]): 0.03 nM
EC50 (HIV-2 clinical isolates; [5]): 0.45 nM
EC50 (HIV-2 clinical isolates; [6]): > 1000 nM
EC50 (HIV-2 clinical isolates; [7]): 0.33 nM
EC50 (HIV-2 clinical isolates; [8]): > 1000 nM
EC50 (HIV-2 clinical isolates; [9]): 0.98 nM
patients in APRI category 0.5-1.5 ([1]; Baseline): 14%
patients in APRI category <0.5 ([1]; Baseline): 84%
patients in APRI category >1.5 ([1]; Baseline): 2%
patients in FIB-4 category 1.45-3.25 ([1]; Baseline): 17%
patients in FIB-4 category <1.45 ([1]; Baseline): 82%
patients in FIB-4 category >3.25 ([1]; Baseline): 1%
APRI: Decreased 1 category from baseline ([1]; Week 24): 14%
FIB-4: Decreased 1 category from baseline ([1]; Week 24): 13%
patients in APRI category 0.5-1.5 ([1]; Week 24): 7%
patients in APRI category <0.5 ([1]; Week 24): 93%
patients in FIB-4 category 1.45-3.25 ([1]; Week 24): 7%
patients in FIB-4 category <1.45 ([1]; Week 24): 93%
APRI: Decreased 1 category from baseline ([1]; Week 48): 10%
FIB-4: Decreased 1 category from baseline ([1]; Week 48): 14%
patients in APRI category 0.5-1.5 ([1]; Week 48): 8%
patients in APRI category <0.5 ([1]; Week 48): 91%
patients in APRI category >1.5 ([1]; Week 48): 1%
patients in FIB-4 category 1.45-3.25 ([1]; Week 48): 5%
patients in FIB-4 category <1.45 ([1]; Week 48): 94%
patients in FIB-4 category >3.25 ([1]; Week 48): 1%
treatment-emergent AE: diarrhea [2]: 16.7%
treatment-emergent AE: fatigue [2]: 11.0%
treatment-emergent AE: headache [2]: 14.8%
treatment-emergent AE: nausea [2]: 18.5%
subjects with mild AEs [2, 10]: 80%
subjects with moderate AEs [2, 10]: 17%
tolerability (in words) ([2]; doses between 25 mg and 150 mg): generally well tolerated
RANTES-induced Ca2+ mobilization (in words) [3]: blocked
inhibition of ligand binding (in words) (CCR4): weakly inhibited
effective concentration at which saturation of CCR5 was reached (CCR5; CD4+ T cells): 3.1 nM
concentration achieving ≧90% receptor occupancy for CCR5 (CCR5; CD4+ T-cells ex vivo in humans): 3.1 nM
effective concentration at which saturation of CCR5 was reached (CCR5; CD8+ T cells): 2.3 nM
concentration achieving ≧90% receptor occupancy for CCR5 (CCR5; CD8+ T-cells ex vivo in humans): 2.3 nM
prevention of RANTES-induced CCR5 internalization (in words) (CCR5; PBMCs): at lower effective concentrations than MVC
cell-surface expression of CCR5 (in words) (CCR5; in the absence of RANTES, PBMCs): increased cell-surface expression of CCR5
